{
  "source": "patent US9255272B2",
  "about": "“Use of inhibitors of leukotriene B4 receptor BLT2 for treating asthma” (Korea University Research & Business Foundation, priority 2007, dated 2016)",
  "key": {"[1]": {"test_system": "VCAM-1", "test": "VCAM-1 expression in lung tissue (Western blot)", "assay_type": "in vivo, mouse", "experimental": "(§1) Female BALB/c mice and C57BL/6 mice (7 weeks old; 18-20 g) were obtained from Orientbion Inc. (Seoungnam, Korea). Sensitization and challenge were carried out as described previously with some modification (28). Briefly, female C57BL/6 mice (7 weeks old; 18-20 g) were immunized by intraperitoneal (i.p.) injection of 200 μg ovalbumin (OVA) emulsified in 2.5 mg of adjuvant aluminum hydroperoxide gel (alum) (Pierce, Rockford, Ill.). A second i.p. injection of 20 μg OVA adsorbed onto alum (2.5 mg) was administered 10 days later. After an additional 10 days, mice were exposed to an aerosol of 1% OVA in saline for 30 min daily on 3 consecutive days. On day 25, mice were finally challenged by provocation with 10% OVA aerosol. For inhibition experiments, sense or antisense BLT2 (1.6 mg/kg) was injected intravenously 24 h and then 1 h before the 10% OVA challenge. The mice were then killed on day 27 to assess asthmatic phenotypes. Antisense BLT2 oligonucleotide (5′-[…]-3′ (SEQ ID NO: 15)), sense BLT2 oligonucleotide (5′-[…]-3′ (SEQ ID NO: 16)).\nAlternatively, BALB/c mice were sensitized on day 1 by i.p. injection of 20 μg OVA emulsified in 2.5 mg of alum (Pierce, Rockford, Ill.), followed by an identical booster injection administered on day 14. On days 21, 22 and 23 after initial sensitization, the mice were challenged for 30 min with an aerosol of 1% OVA using an ultrasonic nebulizer. LY255283 (2.5 mg/kg) or vehicle control (DMSO) was administered intravenously 1 h before 1% OVA challenge. Mice were killed on day 25, to assess asthmatic phenotypes. 2′,7′-dichorofluorescein diacetate (DCF-DA) was purchased from Molecular Probes (Eugene, Oreg.). BSA and DMSO were from Sigma-Aldrich (St. Louis, Mo.). Acetyl-methacholine chloride was purchased from Sigma-Aldrich (St. Louis, Mo.). All other chemicals were from standard sources and were of molecular biology grade or higher. […]"}, "[2]": {"test_system": "NF-κB", "test": "NF-κB binding activity in lung nuclear extracts (EMSA)", "assay_type": "in vivo, mouse", "experimental": "as §1\nA double-strand oligonucleotide corresponding to the consensus NF-κB binding motif and a mutant sequence were purchased from Santa Cruz Biotechnology Inc. (Santa Cruz, Calif.) and labeled with γ-32P-ATP using T4 polynucleotide kinase (Roche, Germany). […]"}, "[3]": {"details": "antisense Rac 1.25 mg/kg, tail vein"}},
  "data": [
    {"molecule": "antisense Rac: phosphorothioate 17-mer to the 5′ end of murine Rac mRNA, 5′-CACTTGATGGCCTGCAT-3′ (SEQ ID NO: 22) (listed as DNA, chemistry not fully specified)", "values": [
      {"measurement": "OVA-induced VCAM-1 induction in lung tissue", "setting": "[1]; [3]", "result": "suppressed this effect"},
      {"measurement": "NF-κB binding activity elicited by OVA challenge", "setting": "[2]; [3]", "result": "attenuated"}
    ]},
    {"molecule": "CCc1cc(C(C)=O)c(O)cc1OCCCCCC(C)(C)c1nnn[nH]1", "note": "[LY255283, 1-[5-ethyl-2-hydroxy-4-[[6-methyl-6-(1H-tetrazol-5-yl)heptyl]oxy]phenyl]-ethanone, reference compound]", "values": [
      {"measurement": "suppression of OVA-induced VCAM-1 induction in lung tissue", "setting": "[1]; LY255283 2.5 mg/kg 1 hr before 1% OVA challenge", "result": "−60", "unit": "%"}
    ]},
    {"molecule": "antisense BLT2: Antisense BLT2 oligonucleotide 5′-GCTCAGTAGTGTCTCATTCC-3′ (SEQ ID NO: 15) (listed as DNA, chemistry not fully specified)", "values": [
      {"measurement": "suppression of OVA-induced VCAM-1 induction in lung tissue", "setting": "[1]; antisense BLT2 1.6 mg/kg", "result": "−60", "unit": "%"},
      {"measurement": "NF-κB binding activity elicited by OVA challenge", "setting": "[2]; antisense BLT2 1.6 mg/kg i.v. 24 hr and 1 hr before provocation", "result": "attenuated"}
    ]}
  ]
}
